Results: publication PMC10947113, “A Bivalent Activatable Fluorescent Probe for Screening and Intravital Imaging of Chemotherapy‐Induced Cancer Cell Death” (Angewandte Chemie (Weinheim an Der Bergstrasse, Germany), 2021)

Experiments:
[1] = test system: 8 cancer cell lines; assay: Classification of drugs by Apotracker Red (apoptosis) and CellTrace Violet (proliferation) staining; format: cell-based; details: 8 cancer cell lines, 24 h treatment, flow cytometry
Protocol: To corroborate the versatility of Apotracker Red, we built a screening platform including a total of 8 cancer cell lines of variable origin and pathogenesis: breast (MCF7, MDA‐MB231 and MMTV‐PyMT (mouse mammary tumour virus‐polyoma middle tumour‐antigen)[23]), lung (A549), prostate (PC3 and LnCap), blood cells (Jurkat) and colon (HT29). All cell lines were cultured under standard conditions and seeded with the fluorescent proliferation marker CellTrace^TM Violet (CV) in 96‐well plates (10–20×10^3 cells/well) for high‐throughput flow cytometry. After drug treatment (i.e., drug addition plus 24 h incubation), Apotracker Red was incubated for 10 min and fluorescence readings were directly acquired without any additional processing steps (Figure 3 a). […] Using this platform, we tested a collection of FDA‐approved drugs in all cancer cell lines and compared their ability to induce apoptosis using Apotracker Red as the reporter. Specifically, we included DNA alkylation agents (e.g., cyclophosphamide, cisplatin, 5‐fluorouracil, gemcitabine, temozolomide), proteasomal and mitotic inhibitors (e.g., bortezomib, docetaxel, paclitaxel) and antagonists of specific proteins (e.g., dexamethasone, tamoxifen; Figure 3 b).
(§1) First, all drugs were tested in the 8 different cell lines to determine the percentages of Apotracker Red‐stained apoptotic cells compared to no treatment (Figure 3 c; Figure S8). […] All 5 drugs were tested at multiple concentrations (from 1 to 100 μM) and with incubation times up to 48 h to examine whether drugs could block cell proliferation at late stages (Figures S9–S13).
Figure S8. Heatmap of relative inhibition of cell proliferation (as indicated by staining of CellTraceTM Violet) after treatment of cancer cell lines with different drugs. Data presented as an average of 3 independent experiments. Cells were stained on day 0 with CellTraceTM Violet (1 µM) and mean fluorescence intensities were determined on the 5L LSR after 24 h of treatment with the different drugs. […]
Cell culture. MCF-7, A549, LnCap, MDA-MB-231, Jurkat T cells and PC3 cells were obtained from American Type Culture Collection (ATCC). HT29 cells were purchased from Merck (S i g m a Aldrich, UK). Mouse Mammary Tumour Virus –Polyoma Middle T antigen (MMTV -PyMT) cells were provided by the lab of Mikala Egeblad (CSHL, US). MMTV-PyMT, MCF-7, LnCap, MDA-MB-231 and Jurkat T cells were cultured in Roswell Park Memorial Institute (RPMI) 1640 Medium supplemented with 10% fetal bovine serum (FBS) , 100 U mL-1 penicillin and 0.1 mg mL-1 streptomycin. A549 and PC3 cells were cultured in Dublecco’s modified Eagle’s medium (DMEM) supplemented with 10% fetal bovine serum (FBS), 100 U mL-1 penicillin and 0.1 mg […]
Flow cytometry drug screen.

[2] = test system: breast cancer cells (MMTV-PyMT, MDA-MB231, MCF7); assay: Dose-dependency study in breast cancer cell lines; format: cell-based, mouse and human
Protocol: as §1, with “S8). […] From this screen, we decided to select 5 drugs with potent pro‐apoptotic response in breast cancer, the most diagnosed cancer worldwide.[25] […] From group 2, we selected cyclophosphamide, tamoxifen, and 5‐fluorouracil as pro‐apoptotic molecules.” for “S8).”
Figure 4 Apotracker Red detects dose‐dependent chemotherapeutic‐induced apoptosis in mouse and human breast cancer cell lines. Cells were plated with 1 μM CV, treated with increasing concentrations (0, 1, 3, 10, 30 and 100 μM) of selected drugs for 48 h, and stained with Apotracker Red (150 nM) before data acquisition. Drugs: tamoxifen (beige), cisplatin (black), 5‐fluorouracil (green), gemcitabine (pink) and cyclophosphamide (red). Data presented as mean±SEM of 3 independent experiments.
Edinburgh. Human peripheral blood neutrophils were isolated as previously described.[3] Briefly, whole blood was drawn into tubes containing anti -coagulant 3.6% sodium citrate (final concentration: 0.4% (w/v)) and centrifuged at 350 g for 20 min at r.t. with lowest acceleration and no brake. Platelet-rich plasma was rem oved, and leukocytes separated from erythrocytes by 0.6% dextran sedimentation in saline for 30 min at r.t. […]
were centrifuged (300 g, 5 min, r.t.), washed once with PBS before addition of 0.05% Trypsin, 0.02% ethylenediaminetetraacetic acid (EDTA) in Hank’s balanced salt solution (HBSS) and incubation at 37°C for 5 min. […] Histograms and mean fluorescence intensities of apoptotic cells were measured on a 5L LSR flow cytometer under the following excitation/emission filters: Apotracker Red (561/610 nm), Annexin V-AF647 (647 /670 nm).
Data were acquired using the FACS Diva software and analysed using the FlowJo X software. […]

Question: How did the “drug group by Apotracker Red (apoptosis) and CV (proliferation) staining” value [1] turn out when `N.N.[Cl][Pt][Cl]` [cisplatin] was run?
Answer: induced apoptosis and decreased cell proliferation

Question: What about the “percentages of Apotracker Red staining across all breast cancer cells, dose-dependency study” value ([2]; 1 to 100 μM, 48 h, Apotracker Red 150 nM, 3 independent experiments) of the same compound?
Answer: highest percentages of Apotracker Red staining

Question: What about the “ratios of proliferation blockage, dose-dependency study” value ([2]; CellTrace Violet 1 μM, drugs 1 to 100 μM, up to 48 h) of the same compound?
Answer: highest ratios of proliferation blockage
